The text below walks through data of patent US9624239B2, “Protein kinase inhibitors” (Pharmascience Inc., priority 2011, dated 2017).

The target of test [1] is T1, histidine tagged recombinant human full-length Bruton Agammaglobulinemia Tyrosine Kinase (Btk) (Homo sapiens, UniProt Q06187).
T1 construct: recombinant human full-length Bruton Agammaglobulinemia Tyrosine Kinase (Btk); histidine tag
As to the kind of experiment: Btk kinase inhibition assay (fluorescence polarization, KinEASE FP Fluorescein Green). The settings on record: 10 μM ATP, 250 μM substrate, 60 minutes, room temperature; Ki from IC50 by Cheng-Prusoff; read-out: ki50 (nM), Inhibition of Btk. The format is biochemical. Here is the method: Kinase Binding Btk and Lck Kinase Inhibition Assay
Fluorescence polarization-based kinase assays were performed in 384 well-plate format using histidine tagged recombinant human full-length Bruton Agammaglobulinemia Tyrosine Kinase (Btk) or histidine tagged recombinant Human Lymphocyte-Specific Protein Tyrosine Kinase (Lck) and a modified protocol of the KinEASE™ FP Fluorescein Green Assay supplied from Millipore. Kinase reaction were performed at room temperature for 60 minutes in presence of 250 μM substrate, 10 μM ATP and variable test article concentrations. The reaction was stopped with EDTA/kinease detection reagents and the polarization measured on a Tecan 500 instrument. From the dose-response curve obtained, the IC50 was calculated using Graph Pad Prisms® using a non-linear fit curve. The Km for ATP on each enzyme was experimentally determined and the Ki values calculated using the Cheng-Prusoff equation (see: Cheng Y, Prusoff W H. (1973) Relationship between the inhibition constant (K1) and the concentration of inhibitor which causes 50 percent inhibition (I50) of an enzymatic reaction”. Biochem Pharmacol 22 (23): 3099-108).
ki values are reported in Tables 2 and 3: • a—Less than 100 nM; b—less than 1000 nM; c—more than 1000 nM
Background: Fluorescence polarisation rises when a labelled molecule tumbles more slowly, as on binding a larger partner.

The test system of test [2] is mouse splenocytes. As to the kind of experiment: Splenic cell proliferation assay (anti-IgM stimulated B cell proliferation, Cell Titer-Glo). In kind it is cell-based. To be noted: Splenocyte; CD1 mouse splenocytes, 1 h pre-treatment, 2.5 ug/ml anti-IgM F(ab')2 for 72 h; read-out: EC50 (nM), Inhibition of splenic cell proliferation. Here is the method: Splenic Cell Proliferation Assay
Splenocytes were obtained from 6 week old male CD1 mice (Charles River Laboratories Inc.). Mouse spleens were manually disrupted in PBS and filtered using a 70 μm cell strainer followed by ammonium chloride red blood cell lysis. Cells were washed, resuspended in Splenocyte Medium (HyClone RPMI supplemented with 10% heat-inactivated FBS, 0.5× non-essential amino acids, 10 mM HEPES, 50 uM beta mercaptoethanol) and incubated at 37° C., 5% CO2 for 2 h to remove adherent cells. Suspension cells were seeded in 96 well plates at 50,000 cells per well and incubated at 37° C., 5% CO2 for 1 h. Splenocytes were pre-treated in triplicate with 10,000 nM curves of Formula 1 compounds for 1 h, followed by stimulation of B cell proliferation with 2.5 ug/ml anti-IgM F(ab′)2 (Jackson ImmunoResearch) for 72 h. Cell proliferation was measured by Cell Titer-Glo Luminescent Assay (Promega). EC50 values (50% proliferation in the presence of compound as compared to vehicle treated controls) were calculated from dose response compound curves using GraphPad Prism Software.
EC50 values are reported in Table 4: • a—Less than 100 nM; b—less than 1000 nM; c—more than 1000 nM
(Cellular ATP, detected with luciferase, serves as a proxy for viable cell number.)

T1 sequence (Q06187 whole entry): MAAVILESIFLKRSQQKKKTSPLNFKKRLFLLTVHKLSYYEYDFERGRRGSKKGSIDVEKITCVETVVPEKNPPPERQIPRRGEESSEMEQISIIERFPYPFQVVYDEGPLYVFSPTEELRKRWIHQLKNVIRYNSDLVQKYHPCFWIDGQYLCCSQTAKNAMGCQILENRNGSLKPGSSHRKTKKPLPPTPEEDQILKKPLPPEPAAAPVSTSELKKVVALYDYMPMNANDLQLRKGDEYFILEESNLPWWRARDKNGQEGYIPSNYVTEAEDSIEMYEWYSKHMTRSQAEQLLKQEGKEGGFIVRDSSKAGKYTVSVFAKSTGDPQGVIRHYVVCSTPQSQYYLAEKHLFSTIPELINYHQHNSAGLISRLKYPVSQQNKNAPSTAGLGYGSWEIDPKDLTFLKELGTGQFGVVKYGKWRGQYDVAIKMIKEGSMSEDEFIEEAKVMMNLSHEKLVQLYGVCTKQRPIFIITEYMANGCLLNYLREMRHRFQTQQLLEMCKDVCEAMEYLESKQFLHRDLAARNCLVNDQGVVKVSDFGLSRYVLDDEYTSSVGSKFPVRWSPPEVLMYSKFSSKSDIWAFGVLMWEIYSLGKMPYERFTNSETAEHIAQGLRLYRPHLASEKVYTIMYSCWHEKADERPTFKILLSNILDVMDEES

Take `Nc1ncnc2c3c(n(-c4ccc(Oc5ccccc5)cc4)c12)CN(C(=O)OCc1ccccc1)C3` [Compound 5]: the Ki in test [1] was over 1000 nM. As for `Nc1ncnc2c3c(n(-c4ccc(Oc5ccccc5)cc4)c12)CCN(C(=O)OCc1ccccc1)C3` [Compound 6], the Ki in test [1] is over 1000 nM.

Consider `Nc1ncnc2c3c(n(-c4ccc(Oc5ccccc5)cc4)c12)CN(Cc1ccccc1)C3` [Compound 10], for which the Ki in test [1] was over 1000 nM. On to `Nc1ncnc2c3c(n(-c4ccc(Oc5ccccc5)cc4)c12)CCN(Cc1ccccc1)C3` [Compound 11], for which the Ki in test [1] was over 1000 nM. `Nc1ncnc2c3c(n(-c4ccc(Oc5ccccc5)cc4)c12)CCN(S(=O)(=O)c1ccccc1)C3` [Compound 12]: in test [1], the Ki is over 1000 nM. Regarding `Nc1ncnc2c3c(n(-c4ccc(Oc5ccccc5)cc4)c12)CCN(C(=O)c1ccccc1)C3` [Compound 16], the Ki in test [1] was over 1000 nM. The same measure, in the same setting: for `NCC(=O)N1CCc2c(c3ncnc(N)c3n2-c2ccc(Oc3ccccc3)cc2)C1` [Compound 17] the value was over 1000 nM; for `NCC(=O)N1Cc2c(n(-c3ccc(Oc4ccccc4)cc3)c3c(N)ncnc23)C1` [Compound 19], over 1000 nM.

For the molecule `CC1OCc2c1c1ncnc(N)c1n2-c1ccc(Oc2cccc(N)c2)cc1` (stereo not drawn) [Compound 47], the Ki in test [1] was under 1000 nM. With `CC1OCc2c1c1ncnc(N)c1n2-c1ccc(Oc2cccc(OCCN(C)C)c2)cc1` (stereo not drawn) [Compound 48], the Ki in test [1] was over 1000 nM. With `CC1OCc2c1c1ncnc(N)c1n2-c1ccc(Oc2cccc(OCCN3CCOCC3)c2)cc1` (stereo not drawn) [Compound 51], the Ki in test [1] is over 1000 nM.

`CC1OCc2c1c1ncnc(N)c1n2-c1ccc(Oc2cccc(OCCN3CCCC3)c2)cc1` (stereo not drawn) [Compound 52]: in test [1], the Ki was over 1000 nM. On to `CC(=O)Nc1cccc(Oc2ccc(-n3c4c(c5ncnc(N)c53)C(C)OC4)cc2)c1` (stereo not drawn) [Compound 55], for which the Ki in test [1] is under 1000 nM. Take `Nc1ncnc2c3c(n(-c4ccc(Oc5cccc(OCc6cccnc6)c5)cc4)c12)CCC3` [Compound 62]: the Ki in test [1] is under 100 nM. Moreover, the EC50 in test [2] lay in the range of 100 to 1000 nM.

On to `Nc1ncnc2c3c(n(-c4ccc(Oc5ccccc5)cc4)c12)CSC3` [Compound 63], for which the Ki in test [1] is over 1000 nM. Besides, the EC50 in test [2] is over 1000 nM. Turning to `CC1OCc2c1c1ncnc(N)c1n2-c1ccc(Oc2cccc(OCc3ccc(C#N)cc3)c2)cc1` (stereo not drawn) [Compound 64], in test [1], the Ki was under 1000 nM. For the same molecule, the EC50 in test [2] is over 1000 nM. Take `Nc1ncnc2c3c(n(-c4ccc(Oc5ccccc5)cc4)c12)CS(=O)(=O)C3` [Compound 65]: the Ki in test [1] was over 1000 nM. In addition, in test [2], the EC50 was over 1000 nM. For the molecule `CCNc1cccc(Oc2ccc(-n3c4c(c5ncnc(N)c53)C(C)OC4)cc2)c1` (stereo not drawn) [Compound 66], the Ki in test [1] was under 1000 nM. The EC50 in test [2] lay in the range of 100 to 1000 nM.

Regarding `CC1OCc2c1c1ncnc(N)c1n2-c1ccc(Oc2cccc(OCC3CCOCC3)c2)cc1` (stereo not drawn) [Compound 67], in test [1], the Ki is under 100 nM. In addition, in test [2], the EC50 is over 1000 nM. Turning to `Nc1ncnc2c3c(n(-c4ccc(Oc5cccc(OCc6ccccc6)c5)cc4)c12)CCC3` [Compound 68], the Ki in test [1] is under 100 nM. The EC50 in test [2] lay in the range of 100 to 1000 nM. On to `CC1OCc2c1c1ncnc(N)c1n2-c1ccc(Oc2cccc(NCc3ccccc3)c2)cc1` (stereo not drawn) [Compound 69], for which the Ki in test [1] was under 100 nM. The EC50 in test [2] is over 1000 nM. Turning to `CC1OCc2c1c1ncnc(N)c1n2-c1ccc(Oc2cccc(N(C)C)c2)cc1` (stereo not drawn) [Compound 70], in test [1], the Ki is under 1000 nM. In addition, the EC50 in test [2] lay within 100 to 1000 nM. `CC1OCc2c1c1ncnc(N)c1n2-c1ccc(Oc2ccc(C#N)cc2)cc1` (stereo not drawn) [Compound 71]: in test [1], the Ki was over 1000 nM. The EC50 in test [2] was over 1000 nM. As to `CC1OCc2c1c1ncnc(N)c1n2-c1ccc(Oc2cccnc2)cc1` (stereo not drawn) [Compound 72], the Ki in test [1] was over 1000 nM. Further, in test [2], the EC50 was over 1000 nM. As for `CC1OCc2c1c1ncnc(N)c1n2-c1ccc(Oc2cccc(OCCCN(C)C)c2)cc1` (stereo not drawn) [Compound 73], the Ki in test [1] is over 1000 nM. Also, the EC50 in test [2] is over 1000 nM. Turning to `CC1OCc2c1c1ncnc(N)c1n2-c1ccc(Oc2ccncc2)cc1` (stereo not drawn) [Compound 74], in test [1], the Ki is over 1000 nM. The EC50 in test [2] is over 1000 nM.

Regarding `CC1OCc2c1c1ncnc(N)c1n2-c1ccc(Oc2cccc(OCc3ccccn3)c2)cc1` (stereo not drawn) [Compound 75], the Ki in test [1] was under 100 nM. In test [2], the EC50 was over 1000 nM.

As for `CC1OCc2c1c1ncnc(N)c1n2-c1ccc(Oc2cccc(NS(C)(=O)=O)c2)cc1` (stereo not drawn) [Compound 76], the Ki in test [1] was under 1000 nM. In test [2], the EC50 is over 1000 nM.

For the molecule `CC1OCc2c1c1ncnc(N)c1n2-c1ccc(Oc2cccc(OCCc3ccccc3)c2)cc1` (stereo not drawn) [Compound 77], the Ki in test [1] is under 100 nM. The EC50 in test [2] was in the range of 100 to 1000 nM.

Turning to `CC1OCc2c1c1ncnc(N)c1n2-c1ccc(Oc2cccc(O[C@H](C)c3ccccc3)c2)cc1` (stereo partly drawn) [Compound 78], the Ki in test [1] was under 1000 nM. Moreover, the EC50 in test [2] was over 1000 nM. For `Cc1ccc(Oc2ccc(-n3c4c(c5ncnc(N)c53)C(C)OC4)cc2)cc1` (stereo not drawn) [Compound 79] the same measures were under 1000 nM and over 1000 nM. In the case of `CC1OCc2c1c1ncnc(N)c1n2-c1ccc(Oc2cccc(NS(=O)(=O)c3ccccc3)c2)cc1` (stereo not drawn) [Compound 80], the Ki in test [1] was under 1000 nM. Moreover, the EC50 in test [2] was over 1000 nM. Regarding `CC1OCc2c1c1ncnc(N)c1n2-c1ccc(Oc2cccc(NS(=O)(=O)Cc3ccccc3)c2)cc1` (stereo not drawn) [Compound 81], the Ki in test [1] is under 100 nM. The EC50 in test [2] was over 1000 nM.

For the molecule `CC1OCc2c1c1ncnc(N)c1n2-c1ccc(Oc2cccc(NC(=O)c3ccccc3)c2)cc1` (stereo not drawn) [Compound 82], the Ki in test [1] is under 100 nM. Further, the EC50 in test [2] is over 1000 nM. `CC1OCc2c1c1ncnc(N)c1n2-c1ccc(Oc2cccc(OCC(N)=O)c2)cc1` (stereo not drawn) [Compound 83]: in test [1], the Ki was over 1000 nM. The EC50 in test [2] is over 1000 nM. Regarding `CC1OCc2c1c1ncnc(N)c1n2-c1ccc(Oc2cccc(NC(=O)Cc3ccccc3)c2)cc1` (stereo not drawn) [Compound 84], in test [1], the Ki is under 100 nM. In addition, the EC50 in test [2] is over 1000 nM.

As for `CC1OCc2c1c1ncnc(N)c1n2-c1ccc(Oc2cccc(COc3ccccc3)c2)cc1` (stereo not drawn) [Compound 85], the Ki in test [1] is under 100 nM. Moreover, the EC50 in test [2] was in the range of 100 to 1000 nM. On to `CC1OCc2c1c1ncnc(N)c1n2-c1ccc(Oc2cccc(O[C@@H](C)c3ccccc3)c2)cc1` (stereo partly drawn) [Compound 86], for which the Ki in test [1] was under 100 nM. In addition, the EC50 in test [2] was over 1000 nM. Turning to `Cc1nc(COc2cccc(Oc3ccc(-n4c5c(c6ncnc(N)c64)C(C)OC5)cc3)c2)no1` (stereo not drawn) [Compound 87], the Ki in test [1] was under 100 nM. In addition, the EC50 in test [2] was over 1000 nM.

With `CC1OCc2c1c1ncnc(N)c1n2-c1ccc(Oc2ccccc2)nc1` (stereo not drawn) [Compound 88], the Ki in test [1] is over 1000 nM.

With `CC1OCc2c1c1ncnc(N)c1n2-c1ccc(Oc2cccc(OCc3cccc(C#N)c3)c2)cc1` (stereo not drawn) [Compound 89], in test [1], the Ki was under 100 nM. Besides, the EC50 in test [2] was 100 to 1000 nM. `Cc1nc(-c2cccc(Oc3ccc(-n4c5c(c6ncnc(N)c64)C(C)OC5)cc3)c2)cs1` (stereo not drawn) [Compound 90]: the Ki in test [1] was under 100 nM. Moreover, the EC50 in test [2] lay within 100 to 1000 nM. On to `CC1OCc2c1c1ncnc(N)c1n2-c1ccc(Oc2cccc(N3CCOCC3)c2)cc1` (stereo not drawn) [Compound 91], for which the Ki in test [1] is under 1000 nM. For `CC1OCc2c1c1ncnc(N)c1n2-c1ccc(Oc2cccc(OCc3cccc(C(N)=O)c3)c2)cc1` (stereo not drawn) [Compound 92], the Ki in test [1] was under 100 nM. Moreover, the EC50 in test [2] lay within 100 to 1000 nM. In the case of `CC1OCc2c1c1ncnc(N)c1n2-c1ccc(Oc2cccc(OCc3cncn3C)c2)cc1` (stereo not drawn) [Compound 93], the Ki in test [1] is under 100 nM. As to `CC1OCc2c1c1ncnc(N)c1n2-c1ccc(Oc2cccc(OCc3ccccc3F)c2)cc1` (stereo not drawn) [Compound 94], the Ki in test [1] was under 100 nM. In addition, the EC50 in test [2] fell in the range of 100 to 1000 nM.

As to `CC1OCc2c1c1ncnc(N)c1n2-c1ccc(Oc2cccc(OCc3ccc(Cl)cc3)c2)cc1` (stereo not drawn) [Compound 95], in test [1], the Ki was under 100 nM. Also, the EC50 in test [2] was in the range of 100 to 1000 nM.

Take `CC1OCc2c1c1ncnc(N)c1n2-c1ccc(Oc2cccc(OCc3ccc(C(N)=O)cc3)c2)cc1` (stereo not drawn) [Compound 98]: the Ki in test [1] is under 100 nM.

As for `CC1OCc2c1c1ncnc(N)c1n2-c1ccc(Oc2cccc(OCc3ccccc3C(N)=O)c2)cc1` (stereo not drawn) [Compound 101], in test [1], the Ki was under 1000 nM. As for `CC(=O)Nc1ccc(COc2cccc(Oc3ccc(-n4c5c(c6ncnc(N)c64)C(C)OC5)cc3)c2)cc1` (stereo not drawn) [Compound 109], the Ki in test [1] is under 1000 nM.
